Measurements reported in patent US20230093099A1, “COMPOUNDS AND METHODS OF TREATING CANCERS” (CULLGEN (SHANGHAI), INC., priority 2019, published 2023).

system: RS4;11 cells; experiment: Cell viability assay (CellTiter-Glo) in RS4;11 cells; assay type: cell-based; details: Homo sapiens, 72 h; RS4;11 cells; cell viability, 3 days, CellTiter-Glo; read-out: IC50
How it was run: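 RS4;11 cells seeded at 5000 per well, exposed for 3 days to 8- or 12-point 3-fold serial dilutions. Viability read by CellTiter-Glo luminescence; IC50 fitted by nonlinear least-squares regression.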

| SMILES | IC50 [nM] |
| --- | --- |
| CS(=O)(=O)c1ccc(-c2cccc3nc(Nc4ccc(N5CCN(C(=O)CCCCCCc6ccc7c(c6)C(=O)N(C6CCC(=O)NC6=O)C7=O)CC5)cc4)nn23)cc1 (stereo not shown) [JA-249, 2-(2,6-Dioxopiperidin-3-yl)-5-(7-(4-(4-((5-(4-(methylsulfonyl)phenyl)-[1,2,4]triazolo[1,5-a]pyridin-2-yl)amino)phenyl)piperazin-1-yl)-7-oxoheptyl)isoindoline-1,3-dione] | 104 |
| Cc1ncsc1-c1ccc(CNC(=O)[C@@H]2C[C@@H](O)CN2C(=O)[C@@H](NC(=O)CCCCCCNC(=O)CN2CCN(c3ccc(Nc4nc5cccc(-c6ccc(S(C)(=O)=O)cc6)n5n4)cc3)CC2)C(C)(C)C)cc1 [JA-123, (2S,4R)-1-((S)-3,3-Dimethyl-2-(7-(2-(4-(4-((5-(4-(methylsulfonyl)phenyl)-[1,2,4]triazolo[1,5-a]pyridin-2-yl)amino)phenyl)piperazin-1-yl)acetamido)heptanamido)butanoyl)-4-hydroxy-N-(4-(4-methylthiazol-5-yl)benzyl)pyrrolidine-2-carboxamide] | > 10000 |
| Cc1cnc(Nc2ccc(N3CCN(CC(=O)NCCOCCOCCOCCNc4cccc5c4C(=O)N(C4CCC(=O)NC4=O)C5=O)CC3)cc2)nc1Nc1cccc(S(=O)(=O)NC(C)(C)C)c1 (stereo not shown) [JA-088, 2-(4-(4-((4-((3-(N-(tert-Butyl)sulfamoyl)phenyl)amino)-5-methylpyrimidin-2-yl)amino)phenyl)piperazin-1-yl)-N-(2-(2-(2-(2-((2-(2,6-dioxopiperidin-3-yl)-1,3-dioxoisoindolin-4-yl)amino)ethoxy)ethoxy)ethoxy)ethyl)acetamide] | 369 |
| Cc1cnc(Nc2ccc(N3CCN(C(=O)CCCCCC(=O)N[C@H](C(=O)N4C[C@H](O)C[C@H]4C(=O)NCc4ccc(-c5scnc5C)cc4)C(C)(C)C)CC3)cc2)nc1Nc1cccc(S(=O)(=O)NC(C)(C)C)c1 [JA-025, (2S,4R)-1-((S)-2-(7-(4-(4-((4-((3-(N-(tert-Butyl)sulfamoyl)phenyl)amino)-5-methylpyrimidin-2-yl)amino)phenyl)piperazin-1-yl)-7-oxoheptanamido)-3,3-dimethylbutanoyl)-4-hydroxy-N-(4-(4-methylthiazol-5-yl)benzyl)pyrrolidine-2-carboxamide] | > 10000 |
| Cn1c(=O)n(C2CCC(=O)NC2=O)c2cccc(NCCCCC(=O)N3CCN(c4ccc(Nc5nc6cccc(-c7ccc(S(C)(=O)=O)cc7)n6n5)cc4)CC3)c21 (stereo not shown) [JA-290, 3-(3-Methyl-4-((5-(4-(4-((5-(4-(methylsulfonyl)phenyl)-[1,2,4]triazolo[1,5-a]pyridin-2-yl)amino)phenyl)piperazin-1-yl)-5-oxopentyl)amino)-2-oxo-2,3-dihydro-1H-benzo[d]imidazol-1-yl)piperidine-2,6-dione] | > 500 |
| O=C1CCC(N2Cc3cc(C#CCCCCC(=O)N4CCC(n5cc(-c6cnc7cccc(-c8cc(F)c(CN9CCOCC9)c(F)c8)c7n6)cn5)CC4)ccc3C2=O)C(=O)N1 (stereo not shown) [JA-271, 3-(5-(7-(4-(4-(8-(3,5-Difluoro-4-(morpholinomethyl)phenyl)quinoxalin-2-yl)-1H-pyrazol-1-yl)piperidin-1-yl)-7-oxohept-1-yn-1-yl)-1-oxoisoindolin-2-yl)piperidine-2,6-dione] | 157 |
| O=C1CCC(N2C(=O)c3ccc(NCCOCCC(=O)N4CCC(n5cc(-c6cnc7cccc(-c8cc(F)c(CN9CCOCC9)c(F)c8)c7n6)cn5)CC4)cc3C2=O)C(=O)N1 (stereo not shown) [JA-181, 5-((2-(3-(4-(4-(8-(3,5-Difluoro-4-(morpholinomethyl)phenyl)quinoxalin-2-yl)-1H-pyrazol-1-yl)piperidin-1-yl)-3-oxopropoxy)ethyl)amino)-2-(2,6-dioxopiperidin-3-yl)isoindoline-1,3-dione] | 1690 |

Now from value to compound:

| IC50 [nM] | SMILES |
| --- | --- |
| > 10000 | Cc1ncsc1-c1ccc(CNC(=O)[C@@H]2C[C@@H](O)CN2C(=O)[C@@H](NC(=O)CCCCCCNC(=O)CN2CCC(n3cc(-c4cnc5cccc(-c6cc(F)c(CN7CCOCC7)c(F)c6)c5n4)cn3)CC2)C(C)(C)C)cc1 [JA-165, (2S,4R)-1-((S)-2-(7-(2-(4-(4-(8-(3,5-Difluoro-4-(morpholinomethyl)phenyl)quinoxalin-2-yl)-1H-pyrazol-1-yl)piperidin-1-yl)acetamido)heptanamido)-3,3-dimethylbutanoyl)-4-hydroxy-N-(4-(4-methylthiazol-5-yl)benzyl)pyrrolidine-2-carboxamide] |
| > 10000 | Cc1cnc(Nc2ccc(N3CCN(C(=O)COCCOCCOCCOCCOCC(=O)N[C@H](C(=O)N4C[C@H](O)C[C@H]4C(=O)NCc4ccc(-c5scnc5C)cc4)C(C)(C)C)CC3)cc2)nc1Nc1cccc(S(=O)(=O)NC(C)(C)C)c1 [JA-036, (2S,4R)-1-((S)-2-(tert-Butyl)-20-(4-(4-((4-((3-(N-(tert-butyl)sulfamoyl)phenyl)amino)-5-methylpyrimidin-2-yl)amino)phenyl)piperazin-1-yl)-4,20-dioxo-6,9,12,15,18-pentaoxa-3-azaicosanoyl)-4-hydroxy-N-(4-(4-methylthiazol-5-yl)benzyl)pyrrolidine-2-carboxamide] |
| 2430 | CS(=O)(=O)c1ccc(-c2cccc3nc(Nc4ccc(N5CCN(C(=O)CCOCCOCCNc6cccc7c6C(=O)N(C6CCC(=O)NC6=O)C7=O)CC5)cc4)nn23)cc1 (stereo not shown) [JA-075, 2-(2,6-Dioxopiperidin-3-yl)-4-((2-(2-(3-(4-(4-((5-(4-(methylsulfonyl)phenyl)-[1,2,4]triazolo[1,5-a]pyridin-2-yl)amino)phenyl)piperazin-1-yl)-3-oxopropoxy)ethoxy)ethyl)amino)isoindoline-1,3-dione] |
| 975 | Cc1cnc(Nc2ccc(N3CCN(CC(=O)NCCOCCOCCOCCOCCNc4cccc5c4C(=O)N(C4CCC(=O)NC4=O)C5=O)CC3)cc2)nc1Nc1cccc(S(=O)(=O)NC(C)(C)C)c1 (stereo not shown) [JA-089, 2-(4-(4-((4-((3-(N-(tert-Butyl)sulfamoyl)phenyl)amino)-5-methylpyrimidin-2-yl)amino)phenyl)piperazin-1-yl)-N-(14-((2-(2,6-dioxopiperidin-3-yl)-1,3-dioxoisoindolin-4-yl)amino)-3,6,9,12-tetraoxatetradecyl)acetamide] |
| > 10000 | Cc1cnc(Nc2ccc(N3CCN(CC(=O)NCCOCCOCCOCCC(=O)N[C@H](C(=O)N4C[C@H](O)C[C@H]4C(=O)NCc4ccc(-c5scnc5C)cc4)C(C)(C)C)CC3)cc2)nc1Nc1cccc(S(=O)(=O)NC(C)(C)C)c1 [JA-221, (2S,4R)-1-((S)-17-(tert-butyl)-1-(4-(4-((4-((3-(N-(tert-butyl)sulfamoyl)phenyl)amino)-5-methylpyrimidin-2-yl)amino)phenyl)piperazin-1-yl)-2,15-dioxo-6,9,12-trioxa-3,16-diazaoctadecan-18-oyl)-4-hydroxy-N-(4-(4-methylthiazol-5-yl)benzyl)pyrrolidine-2-carboxamide] |
| > 10000 | O=C(CN1CCC(n2cc(-c3cnc4cccc(-c5cc(F)c(CN6CCOCC6)c(F)c5)c4n3)cn2)CC1)NCCCCNc1cccc2c1C(=O)N(C1CCC(=O)NC1=O)C2=O (stereo not shown) [JA-146, 2-(4-(4-(8-(3,5-Difluoro-4-(morpholinomethyl)phenyl)quinoxalin-2-yl)-1H-pyrazol-1-yl)piperidin-1-yl)-N-(4-((2-(2,6-dioxopiperidin-3-yl)-1,3-dioxoisoindolin-4-yl)amino)butyl)acetamide] |
